# According to US20100151053A1, “SYSTEM AND METHOD FOR THE DELIVERY OF A SANITIZING FOAM” (GREEN SOURCE AUTOMATED, LLC, priority 2008, published 2010):
# Experiment: volumes of gas dissolved in teat dip solution under pressure
# Type: physicochemical
# Conditions: standard room temperature and 100 psi pressure; TeatKote 10/111 dip solution
# Description: When a vessel containing the dip solution is pressurized, the gas mixture pressure causes the gasses to dissolve into the dip and an amount of energy caused by the pressurization acts upon the system. The system is allowed to come to equilibrium and the temperature is controlled such that any temperature rise caused by this energy introduction is removed. Henry's law states: “the amount of any given gas that will dissolve in a liquid at a given temperature is a function of the partial pressure of the gas that is in contact with the liquid and the solubility coefficient of the gas in the particular liquid.” In other words, the amount of gas that can be dissolved into a liquid depends on the temperature, the pressure, and how well the particular liquid absorbs gases. With that being said, in order to make a consistent application of the preparation as a foam on the teats of a cow, a consistent pressure and temperature is beneficial. A recirculation loop from the pressurized tank to the nozzle and back to the tank can, for example, be employed to make sure the temperature and dissolved gas content remain consistent with that of the dip mixture in the tank in an embodiment of the invention.
# In various embodiments of the invention, a pressure vessel is used to hold the dip solution and expose it to the propellant/diffused gas or gasses. […]
row,"volumes dissolved, gas versus dip solution",Compound
1,approximately 4.5 volumes,"O=C=O [CO2, Carbon dioxide]"
2,approximately four,"[N-]=[N+]=O [Example N2O, nitrous oxide]"
